# Structures can show the parent of a compound that is named as a salt. Where two headings read alike, the source gives them in different places.
# Experiments:
# Blutdruck der Katze = test: Blood pressure increasing effect after intraduodenal application in anaesthetised cats; format: in vivo, Katzen; conditions: Felis catus, aqueous solution, anaesthetised cat; for change in vivo at 3 mg/kg: 3 mg/kg intraduodenal; for change in vivo at 10 mg/kg: 10 mg/kg intraduodenal; for change in vivo at 30 mg/kg: 30 mg/kg intraduodenal; for change in vivo at 1 mg/kg: 1 mg/kg intraduodenal; for change in vivo at 0.3 mg/kg: 0.3 mg/kg intraduodenal
# Description: An 2-4 kg schweren, männlichen und weiblichen, narkotisierten Katzen [Chloralose (70 mg/kg) und Urethan 25 proz. (200 mg/kg)i.p.] wurden die Substanzen in wäßriger Lösung intraduodenal appliziert. Der Anstieg des systolischen und des diastolischen Blutdruckes wird in Prozenten des Ausgangswertes angegeben. N bedeutet Anzahl der Versuchstiere pro Versuch.
# Blutdruck = conditions: oral; from the literature (E. Muschöll 1967); cited from earlier work
# [1] = Minimum solubility in water; conditions: for Mindestlöslichkeit in Wasser: Tab. 1, minimum solubility (lower bound) of the salts in water; for solubility: water
# [2] = read-out: Diastol. Blutdruck (Anstieg)
# [3] = read-out: Systol. Blutdruck (Anstieg)
Structure (SMILES),change in vivo at 3 mg/kg (Blutdruck der Katze; [2]) [%],change in vivo at 3 mg/kg (Blutdruck der Katze; [3]) [%],change in vivo at 10 mg/kg (Blutdruck der Katze; [2]) [%],change in vivo at 10 mg/kg (Blutdruck der Katze; [3]) [%],Mindestlöslichkeit in Wasser [1] [%],change in vivo at 1 mg/kg (Blutdruck der Katze; [2]) [%],change in vivo at 1 mg/kg (Blutdruck der Katze; [3]) [%],further results
"NCC(O)c1cccc(O)c1 (racemic) [Norfenefrin, DL-1-(3'-Hydroxyphenyl)-2-aminoethanol, reference compound]",18 ± 6,25 ± 9,25 ± 5,34 ± 7,–,–,–,change in vivo at 30 mg/kg (Blutdruck der Katze; [2]): 37 ± 9%; change in vivo at 30 mg/kg (Blutdruck der Katze; [3]): 41 ± 7%; orale Wirksamkeit (Blutdruck): geringe orale Wirksamkeit
"CC(=O)Oc1cccc(C(O)CN)c1.Cl (centres unmarked) [Verbindung 1, 1-(3'-Acetoxyphenyl)-2-aminoethanol-hydrochlorid]",29 ± 6,35 ± 8,48 ± 8,59 ± 6,50,20 ± 10,27 ± 10,–
CCC(=O)Oc1cccc(C(O)CN)c1 (centres unmarked) [Verbindung 2],–,–,–,–,50,–,–,–
CCCC(=O)Oc1cccc(C(O)CN)c1 (centres unmarked) [Verbindung 3],–,–,–,–,50,–,–,–
CC(C)C(=O)Oc1cccc(C(O)CN)c1 (centres unmarked) [Verbindung 4],–,–,–,–,50,–,–,–
CCCCC(=O)Oc1cccc(C(O)CN)c1 (centres unmarked) [Verbindung 5],29 ± 8,42 ± 10,–,–,50,31 ± 8,33 ± 7,change in vivo at 0.3 mg/kg (Blutdruck der Katze; [2]): 19 ± 11%; change in vivo at 0.3 mg/kg (Blutdruck der Katze; [3]): 20 ± 10%
CC(C)CC(=O)Oc1cccc(C(O)CN)c1 (centres unmarked) [Verbindung 6],–,–,–,–,50,–,–,–
"CC(C)(C)C(=O)Oc1cccc(C(O)CN)c1.Cl (centres unmarked) [Verbindung 7, 1-(3'-Pivaloyloxyphenyl)-2-aminoethanol-hydrochlorid]",29 ± 5,37 ± 6,74 ± 13,79 ± 8,50,17 ± 6,17 ± 7,–
CCCCCC(=O)Oc1cccc(C(O)CN)c1 (centres unmarked) [Verbindung 8],–,–,–,–,50,–,–,–
CC(C)CCC(=O)Oc1cccc(C(O)CN)c1 (centres unmarked) [Verbindung 9],–,–,–,–,50,–,–,–
CCC(CC)C(=O)Oc1cccc(C(O)CN)c1 (centres unmarked) [Verbindung 10],48 ± 11,48 ± 11,89 ± 14,85 ± 11,50,19 ± 3,25 ± 5,–
CC(C)(C)CC(=O)Oc1cccc(C(O)CN)c1 (centres unmarked) [Verbindung 11],–,–,–,–,50,–,–,–
"CCCCCCC(=O)Oc1cccc(C(O)CN)c1.Cl (centres unmarked) [Verbindung 12, 1-(3'-Heptanoyloxyphenyl)-2-aminoethanol-hydrochlorid]",65 ± 17,70 ± 14,51 ± 11,61 ± 10,50,17 ± 7,21 ± 8,–
CCCC(CC)(CC)C(=O)Oc1cccc(C(O)CN)c1 (centres unmarked) [Verbindung 13],–,–,–,–,50,–,–,–
CCCCCCCCCCCC(=O)Oc1cccc(C(O)CN)c1 (centres unmarked) [Verbindung 14],25 ± 8,39 ± 9,90 ± 25,87 ± 15,–,16 ± 4,23 ± 6,solubility [1]: 150 mg/mL
NCC(O)c1cccc(OC(=O)Cc2ccccc2)c1 (centres unmarked) [Verbindung 15],36 ± 11,50 ± 11,81 ± 15,88 ± 15,50,20 ± 4,24 ± 3,–
CC(C(=O)Oc1cccc(C(O)CN)c1)c1ccccc1 (centres unmarked) [Verbindung 16],31 ± 8,38 ± 12,55 ± 13,63 ± 9,50,10 ± 3,20 ± 7,–
CCC(C(=O)Oc1cccc(C(O)CN)c1)c1ccccc1 (centres unmarked) [Verbindung 17],31 ± 6,42 ± 9,38 ± 6,47 ± 10,–,25 ± 7,29 ± 7,solubility [1]: 200 mg/mL
NCC(O)c1cccc(OC(=O)c2ccccc2)c1 (centres unmarked) [Verbindung 18],–,–,–,–,50,–,–,–
Cc1ccccc1C(=O)Oc1cccc(C(O)CN)c1 (centres unmarked) [Verbindung 19],21 ± 6,26 ± 7,32 ± 11,37 ± 7,50,15 ± 7,17 ± 5,–
"Cc1ccc(C(=O)Oc2cccc(C(O)CN)c2)cc1 (centres unmarked) [Verbindung 20, 1-[3'-(4'-Methylbenzoyloxy)phenyl]-2-aminoethanol-hydrochlorid]",100 ± 24,122 ± 25,–,–,50,26 ± 6,28 ± 6,change in vivo at 0.3 mg/kg (Blutdruck der Katze; [2]): 17 ± 10%; change in vivo at 0.3 mg/kg (Blutdruck der Katze; [3]): 20 ± 10%
"CC(=O)NCC(O)c1cccc(O)c1 (centres unmarked) [Verbindung 21, reference compound]",–,–,–,–,–,–,–,solubility [1]: 100 mg/mL
"CC(=O)NCC(OC(C)=O)c1cccc(O)c1 (centres unmarked) [Verbindung 22, reference compound]",–,–,–,–,–,–,–,solubility [1]: 12 mg/mL
"CC(C)(C)C(=O)NCC(O)c1cccc(O)c1 (centres unmarked) [Verbindung 23, reference compound]",–,–,–,–,–,–,–,solubility [1]: 10 mg/mL
"CC(C)(C)C(=O)NCC(OC(=O)C(C)(C)C)c1cccc(O)c1 (centres unmarked) [Verbindung 24, reference compound]",–,–,–,–,–,–,–,solubility [1]: 0.1 mg/mL
"CC(C)(C)C(=O)NCC(OC(=O)C(C)(C)C)c1cccc(OC(=O)C(C)(C)C)c1 (centres unmarked) [Verbindung 25, reference compound]",–,–,–,–,–,–,–,solubility [1]: 0.1 mg/mL

# From patent EP0024616A1, “1-(3'-Acyloxyphenyl)-2-aminoethanols, their acid addition salts, pharmaceutical compositions containing them and process for their preparation” (Klinge Pharma GmbH, priority 1979, dated 1981)
